Results published in patent US4217274A, “Methoxyethoxymethyl esters of penicillins” (Bristol-Myers Company, priority 1978, dated 1980).
In brackets after ≈: the same amount, converted by molar mass. Read-outs that look alike come from different tables or passages of the source.

How the values were obtained:
p. vulgaris = experiment: MIC, antibiotic dilution technique (agar), Table 4; type: cell-based; conditions: Proteus vulgaris; Table 4, 2 strains, geometric mean where applicable
Source text: (§1) Bacteria. The organisms, preponderantly of recent clinical origin, were obtained from numerous sources of broad geographical distribution. Obligate anaerobes were maintained in Egg Meat Medium (Difco); Mycobacterium was stored on Lowenstein Medium (Jensen Modification; Difco). The techniques of storing all other organisms have been described previously [Leitner et al., BL-S640, A Cephalosporin with a Broad Spectrum of Antibacterial Activity: Properties in vitro, Antimicrob. Agents Chemother., 7, 298-305 (1975)].
(§2) Antibiotic spectrum. The growth-inhibitory activity of the compounds was determined by the antibiotic dilution technique. Procedures were as follows:
(§3) Aerobic organisms (excluding Mycobacterium). Except for Haemophilus and Neisseria, the assay was performed in Mueller-Hinton Medium (Difco). For fastidious organisms, i.e., Streptococcus, Listeria, Pasteurella, Bordetella and Vibrio, the medium was supplemented with 4% defibrinated sheep blood. The antibiotic susceptibility of Haemophilus and Neisseria was determined in GC Medium Base (BBL) supplemented with 1% Hemoglobin (BBL) and 1% Isovitalex (BBL).
(§4) Overnight broth cultures of an exponentially growing culture (Neisseria) served as the source of inoculum. A volume of approximately 0.003 ml. of the undiluted or diluted culture was applied to the surface of the antibiotic-containing agar plates with the inoculator of Steers et al., An Inocula Replicating Apparatus for Routine Testing of Bacterial Susceptibility to Antibiotics, Antibiot. Chemother., 9, 307-311, (1959). Cultures of Neisseria, Streptococcus pneumoniae, S. viridans and S. pyogenes were used without dilution; those of all other organisms were diluted 100-fold. The inoculum contained about 10^3 viable cells for Neisseria, 10^5 for S. pneumoniae and S. pyogenes, 10^6 for S. viridans and 10^4 for all other species.

S. pyogenes = experiment: MIC, antibiotic dilution technique (agar), Table 4; type: cell-based; conditions: Streptococcus pyogenes; Table 4, 6 strains, geometric mean where applicable
Source text: as §1, §2, §3, §4

E. cloacae = experiment: MIC, antibiotic dilution technique (agar), Table 4; type: cell-based; conditions: Enterobacter cloacae; Table 4, 2 strains, geometric mean where applicable
Source text: as §1, §2, §3, §4

P. rettgeri = experiment: MIC, antibiotic dilution technique (agar), Table 4; type: cell-based; conditions: Providencia rettgeri
Source text: as §1, §2, §3, §4

K. pneumoniae [1] = experiment: MIC, antibiotic dilution technique (agar), Table 4; type: cell-based; conditions: Klebsiella pneumoniae
Source text: as §1, §2, §3, §4

E. Coli [2] = experiment: MIC, antibiotic dilution technique (agar), Table 4; type: cell-based; conditions: Escherichia coli
Source text: as §1, §2, §3, §4

[3] = tested on: Streptococcus sp. (β-hemolytic); experiment: MIC, antibiotic dilution technique (agar), Table 4; type: cell-based; conditions: Table 4, 6 strains, geometric mean where applicable
Source text: as §1, §2, §3, §4

S. faecalis = experiment: MIC, antibiotic dilution technique (agar), Table 4; type: cell-based; conditions: Enterococcus faecalis; Table 4, 6 strains, geometric mean where applicable
Source text: as §1, §2, §3, §4

P. mirabilis = experiment: MIC, antibiotic dilution technique (agar), Table 4; type: cell-based; conditions: Proteus mirabilis
Source text: as §1, §2, §3, §4

S. pneumoniae = experiment: MIC, antibiotic dilution technique (agar), Table 4; type: cell-based; conditions: Streptococcus pneumoniae; Table 4, 7 strains, geometric mean where applicable
Source text: as §1, §2, §3, §4

S. marcescens = experiment: MIC, antibiotic dilution technique (agar), Table 4; type: cell-based; conditions: Serratia marcescens
Source text: as §1, §2, §3, §4

[4] = tested on: S. aureus (lacking penase); experiment: MIC, antibiotic dilution technique (agar), Table 4; type: cell-based; conditions: Staphylococcus aureus; Table 4, 6 strains, geometric mean where applicable
Source text: as §1, §2, §3, §4

S. viridans = experiment: MIC, antibiotic dilution technique (agar), Table 4; type: cell-based; conditions: Streptococcus viridans
Source text: as §1, §2, §3, §4

Str. pneumoniae = experiment: MIC, antibiotic dilution technique (agar); type: cell-based; conditions: Streptococcus pneumoniae; Table 1, Str. pneumoniae
Source text: as §1, §2, §3, §4

S. aureus = experiment: MIC, antibiotic dilution technique (agar); type: cell-based; conditions: Staphylococcus aureus
Source text: as §1, §2, §3, §4

Pr. mirabilis = experiment: MIC, antibiotic dilution technique (agar); type: cell-based; conditions: Proteus mirabilis; Table 1, Pr. mirabilis
Source text: as §1, §2, §3, §4

K. pneumoniae [5] = experiment: MIC, antibiotic dilution technique (agar); type: cell-based; conditions: Klebsiella pneumoniae, Table 1, K. pneumoniae, read-out: MIC
Source text: as §1, §2, §3, §4

S. aureus Meth-Res. = experiment: MIC, antibiotic dilution technique (agar); type: cell-based; conditions: Staphylococcus aureus; Table 1, S. aureus Meth-Res.
Source text: as §1, §2, §3, §4

E. Coli [6] = experiment: MIC, antibiotic dilution technique (agar); type: cell-based; conditions: Escherichia coli, Table 1, E. Coli
Source text: as §1, §2, §3, §4

S. aureus Pen-Res. = experiment: MIC, antibiotic dilution technique (agar); type: cell-based; conditions: Staphylococcus aureus
Source text: as §1, §2, §3, §4

Pr. rettgeri = experiment: MIC, antibiotic dilution technique (agar); type: cell-based; conditions: Providencia rettgeri; Table 1, Pr. rettgeri
Source text: as §1, §2, §3, §4

Ser. marcescens = experiment: MIC, antibiotic dilution technique (agar); type: cell-based; conditions: Serratia marcescens; Table 1, Ser. marcescens
Source text: as §1, §2, §3, §4

Pr. morganii = experiment: MIC, antibiotic dilution technique (agar); type: cell-based; conditions: Morganella morganii
Source text: as §1, §2, §3, §4

Ps. aeruginosa = experiment: MIC, antibiotic dilution technique (agar); type: cell-based; conditions: Pseudomonas aeruginosa, Table 1, Ps. aeruginosa
Source text: as §1, §2, §3, §4

Ent. cloacae = experiment: MIC, antibiotic dilution technique (agar); type: cell-based; conditions: Enterobacter cloacae, Table 1, Ent. cloacae, read-out: MIC
Source text: as §1, §2, §3, §4

Str. faecalis = experiment: MIC, antibiotic dilution technique (agar); type: cell-based; conditions: Enterococcus faecalis; Table 1, Str. faecalis
Source text: as §1, §2, §3, §4

Pr. vulgaris = experiment: MIC, antibiotic dilution technique (agar); type: cell-based; conditions: Proteus vulgaris; Table 1, Pr. vulgaris
Source text: as §1, §2, §3, §4

[7] = Mouse blood levels after oral administration (disc diffusion bioassay, Bacillus subtilis); conditions: in vivo, 100 mg/kg
Str. pyogenes = experiment: MIC, antibiotic dilution technique (agar); type: cell-based, S. pyogenes; conditions: Streptococcus pyogenes; Table 1, Str. pyogenes
Source text: as §1, §2, §3, §4

Structure (SMILES): CC1(C)S[C@@H]2[C@H](NC(=O)[C@H](N)c3ccccc3)C(=O)N2[C@H]1C(=O)O [Ampicillin, ampicillin]
- MIC (p. vulgaris): 0.35 µg/mL (≈ 1 µM)
- MIC (S. pyogenes): 0.016 µg/mL (≈ 0.0458 µM)
- MIC (E. cloacae): 63 µg/mL (≈ 180 µM)
- MIC (P. rettgeri; Table 4, P. retgeri, 2 strains (third line), geometric mean where applicable): 32 µg/mL (≈ 91.6 µM)
- MIC (P. rettgeri; Table 4, P. rettgeri, 1 strain (first line)): 0.13 µg/mL (≈ 0.372 µM)
- MIC (P. rettgeri; Table 4, P. rettgeri, 1 strain (second line)): 4 µg/mL (≈ 11.4 µM)
- MIC (K. pneumoniae [1]): > 125 µg/mL
- MIC (K. pneumoniae [1]; Table 4, K. pneumoniae, 1 strain (first line), read-out: MIC): 32 µg/mL (≈ 91.6 µM)
- MIC (E. Coli [2]; 1 strain (first line)): 0.5 µg/mL (≈ 1.43 µM)
- MIC (E. Coli [2]; 1 strain (fourth line)): > 125 µg/mL
- MIC (E. Coli [2]; 1 strain (third line)): 63 µg/mL (≈ 180 µM)
- MIC (E. Coli [2]; 3 strains (second line), geometric mean where applicable): 2.5 µg/mL (≈ 7.15 µM)
- MIC [3]: 0.063 µg/mL (≈ 0.18 µM)
- MIC (S. faecalis): 1 µg/mL (≈ 2.86 µM)
- MIC (P. mirabilis): > 125 µg/mL
- MIC (P. mirabilis; Table 4, P. mirabilis, 4 strains, geometric mean where applicable, read-out: MIC): 2 µg/mL (≈ 5.72 µM)
- MIC (S. pneumoniae): 0.02 µg/mL (≈ 0.0572 µM)
- MIC (S. marcescens; 1 strain (first line), read-out: MIC): 63 µg/mL (≈ 180 µM)
- MIC (S. marcescens; 1 strain (second line)): > 125 µg/mL
- MIC [4]: 0.07 µg/mL (≈ 0.2 µM)
- MIC (S. viridans; Table 4, S. viridans, 1 strain (second line)): 0.063 µg/mL (≈ 0.18 µM)
- MIC (S. viridans; Table 4, S. viridans, 3 strains, geometric mean where applicable): 0.05 µg/mL (≈ 0.143 µM)
- MIC (S. viridans; Table 4, s. viridans, 1 strain (third line)): 0.35 µg/mL (≈ 1 µM)
- MIC (Str. pneumoniae): 0.004 µg/mL (≈ 0.0114 µM)
- MIC (S. aureus; Table 1, S. aureus): 0.03 µg/mL (≈ 0.0859 µM)
- MIC (S. aureus; Table 1, S. aureus + 50% serum): 0.06 µg/mL
- MIC (Pr. mirabilis): 0.06 µg/mL (≈ 0.172 µM)
- MIC (K. pneumoniae [5]; first line): 63 µg/mL (≈ 180 µM)
- MIC (K. pneumoniae [5]; second line): 32 µg/mL (≈ 91.6 µM)
- MIC (S. aureus Meth-Res.): 16 µg/mL (≈ 45.8 µM)
- MIC (E. Coli [6]; first line): 1 µg/mL (≈ 2.86 µM)
- MIC (E. Coli [6]; second line): 63 µg/mL (≈ 180 µM)
- MIC (S. aureus Pen-Res.): 125 µg/mL (≈ 358 µM)
- MIC (Pr. rettgeri): 8 µg/mL (≈ 22.9 µM)
- MIC (Ser. marcescens): 16 µg/mL (≈ 45.8 µM)
- MIC (Pr. morganii): 125 µg/mL (≈ 358 µM)
- MIC (Ps. aeruginosa; first line, read-out: MIC): 63 µg/mL (≈ 180 µM)
- MIC (Ps. aeruginosa; second line): > 125 µg/mL
- MIC (Ent. cloacae; first line): 32 µg/mL (≈ 91.6 µM)
- MIC (Ent. cloacae; second line): 32 µg/mL (≈ 91.6 µM)
- MIC (Str. faecalis): 0.13 µg/mL (≈ 0.372 µM)
- MIC (Pr. vulgaris): 0.13 µg/mL (≈ 0.372 µM)
- concentration at 0.25 h [7]: 3500 ng/mL
- concentration at 0.5 h [7]: 6600 ng/mL
- concentration at 1 h [7]: 6800 ng/mL
- concentration at 1.5 h [7]: 4300 ng/mL
- concentration at 2 h [7]: 2500 ng/mL
- concentration at 3 h [7]: 1100 ng/mL
- MIC (Str. pyogenes): 0.008 µg/mL (≈ 0.0229 µM)
